Test results as given in the OPERA property sets (Mansouri et al. 2018).
Where a SMILES comes first, the peptide text is derived from it.

`COc1cc2c(c(OC)c1OC)-c1ccc(O)c(=O)cc1C(N)CC2` (centres undefined) gave a logP of 0.74.
With `CC(C)CC(NC(=O)C(C)NC(=O)C(C)NC(=O)C(C)NC(=O)C(N)Cc1ccccc1)C(=O)O` (centres undefined) (H-FAAAL-OH; configuration not given here) the logP was -2.23.
With `CC(=O)Nc1ccc(S(=O)(=O)Nc2cc(C)nc(C)n2)cc1` the logP was -0.14.
Work on `O=c1cc(CBr)oc(Br)c1O` yielded a logP of 1.27.
In the case of `Cc1c(C)c2cc3c(C)coc3nc2oc1=O`, the logP is reported as 2.25.
In the case of `OCCCNc1ncnc2c1ncn2C1OC(CO)C(O)C1O` (centres undefined), the logP is reported as -0.86.
In the case of `CCCSCc1cc(=O)c(O)co1`, the logP is reported as 1.32.
With `NC(=S)NN=C(c1ccccc1)c1ccccn1` the logP was 1.92.
Work on `COC(=O)C(Cc1ccccc1)(Cc1ccccc1)S(=O)(=O)c1ccc([N+](=O)[O-])cc1` yielded a logP of 4.46.
Work on `O=C(O)CCCCCON=C(c1ccccc1)c1ccncn1` yielded a logP of 2.66.
Work on `COc1cc2c(Nc3cc(CC(=O)Nc4cccc(F)c4F)[nH]n3)ncnc2cc1OCCCN(CCO)CC(C)C` yielded a logP of 5.2.
In the case of `COc1cccc(NC(=O)OCCN2CCCCC2)c1`, the logP is reported as 3.32.
In the case of `CC(C)C1(C)N=C(c2ncc(CO)cc2C(=O)O)NC1=O` (centres undefined), the logP is reported as -0.21.
With `NC(Cc1ccccc1)C(=O)NC(Cc1ccccc1)C(=O)NCC(=O)NC(Cc1ccccc1)C(=O)O` (centres undefined) (H-FFGF-OH; configuration not given here) the logP was 0.17.
`CC(C)Nc1nc(=O)n(C(C)C)c(=O)n1C` gave a logP of 0.53.
With `O=C(NC(Cc1c[nH]c2ccccc12)C(=O)O)OCc1ccccc1` (centres undefined) the logP was 3.2.
Compound `CON=C(C(=O)NC1C(=O)N2C(C(=O)OCc3oc(=O)oc3C)=CCSC12)c1csc(N)n1` (centres undefined) has a logP of 0.17.
`Cc1cccc(C)c1CCn1ccnc1` gave a logP of 2.73.
`CCCOc1cccc(CNc2[nH]cnc3ncnc2-3)c1` gave a logP of 3.12.
`CCCCCN(CCCCC)CC(O)c1ccccc1` (centres undefined) showed a logP of 2.86.
Work on `Cc1coc2nc3oc(=O)cc(C)c3cc12` yielded a logP of 1.64.
`CN1CC(O)N(C(=O)NC(C)(C)C)C1=O` (centres undefined) showed a logP of 1.38.
In the case of `CCCOCCCNc1ncnc2c1ncn2C1OC(CO)C(O)C1O` (centres undefined), the logP is reported as 0.81.
Compound `CC(C)(C)OC(=O)NC(Cc1c[nH]c2ccccc12)C(=O)O` (centres undefined) has a logP of 2.65.
Work on `CCCC1C(=O)N(CCN(C)C)c2ccccc2CC1c1ccc(OC)cc1` (centres undefined) yielded a logP of 5.6.
With `COc1ccccc1N1CCN(CCNCC(O)CON=C(C2CC2)C2CC2)CC1` (centres undefined) the logP was 3.21.
With `Cc1c2oc(=O)ccc2c(C)c2c(C)coc12` the logP was 3.35.
`COCCCNC(=O)Cn1cnc([N+](=O)[O-])n1` showed a logP of -0.49.
With `CC1(C)CC(=O)C=C(N2CCCCC2)C1` the logP was 2.83.
`Nc1nc(N)c2c(F)cccc2n1` showed a logP of 1.19.
In the case of `O=C(NO)NN=Cc1cccc(C(F)(F)F)c1`, the logP is reported as 1.64.
`CCOCCCNc1[nH]cnc2ncnc1-2` gave a logP of 1.15.
In the case of `O=C(O)CCCCON=C(c1ccccc1)c1cncnc1`, the logP is reported as 2.65.
With `CC(=O)Nc1ccc(F)cc1F` the logP was 1.5.
`COc1cccc(C=[N+]([O-])C(C)(C)C)c1` gave a logP of 1.4.
`O=[N+]([O-])c1ccc2c(c1)-c1ccccc1C2` gave a logP of 3.99.
For `CC(C)NC(=NC#N)NS(=O)(=O)c1cnccc1NC1CCCCCCC1`, the logP was 2.58.
Compound `CC(O)CN(C)C` (centres undefined) has a logP of 0.2.
With `Clc1ccccc1N1CCN(CCn2nnc3ccccc32)CC1` the logP was 3.35.
For `CON(C)C(=O)Nc1ccc(NS(C)(=O)=O)cc1`, the logP was 0.14.
Work on `CCOC(=O)c1cccc(N(C)C)c1` yielded a logP of 3.19.
Compound `Clc1ccc(/C=N/OCCc2nc(-c3ccccc3)n[nH]2)cc1` has a logP of 2.83.
With `CC1CN(CC2CN=C(N)O2)CC(C)O1` (centres undefined) the logP was 0.16.
With `COc1ccc(C2Cc3cc(C(F)(F)F)ccc3N(CCN(C)C)C(=O)C2CC(C)=O)cc1` (centres undefined) the logP was 4.7.
`Cc1ccc(CO)c(C=NNC(=O)c2ccccc2)c1O` showed a logP of 3.01.
`CC#CC(=O)c1c(C)nc2c3c(c(C(=O)N(C)C)cn12)CCC(c1ccccc1)O3` (centres undefined) showed a logP of 3.4.
For `O=C(c1c(O)c2ccc(Cl)cc2[nH]c1=O)C1CC1`, the logP was 2.35.
`ClCC1(C(Cl)Cl)C2CC(Cl)C1(C(Cl)Cl)CC2(Cl)Cl` (centres undefined) gave a logP of 5.75.
With `CC1(C(=O)O)CSC(c2cc(O)ccc2O)=N1` (centres undefined) the logP was 1.3.
In the case of `O=C(Nc1ncc([N+](=O)[O-])s1)c1ccc(Cl)c(Cl)c1`, the logP is reported as 4.14.
With `CN(C)CCOc1cccc(Cl)c1` the logP was 2.82.
Compound `CCCC(=O)OC1Cc2c(O)cc(O)cc2OC1c1ccc(O)c(O)c1` (centres undefined) has a logP of 2.47.
With `COCc1ccc(CC#N)cc1` the logP was 1.23.
In the case of `C[N+](C)([O-])C(c1ccccc1)c1ccccc1`, the logP is reported as 0.82.
Work on `O=C(Cc1c(Cl)cc(Cl)cc1Cl)Oc1coc(CO)cc1=O` yielded a logP of 1.92.
For `CC(C)N(CCC(C(N)=O)c1ccccc1Cl)C(C)C` (centres undefined), the logP was 2.83.
In the case of `CNc1ncnc2[nH]cnc12`, the logP is reported as 0.43.
In the case of `Cc1nc2ccccc2c(=O)n1CC(=O)NCc1ccccc1`, the logP is reported as 1.78.
Work on `OCCCCCCNc1ncnc2c1ncn2C1OC(CO)C(O)C1O` (centres undefined) yielded a logP of 0.23.
Compound `OCC1OC(n2cnc3c(NCCCCc4ccccc4)ncnc32)C(O)C1O` (centres undefined) has a logP of 2.29.
With `CC(C)CC(N)C(=O)NC(CC(C)C)C(=O)N1CCCC1C(=O)NC(CC(C)C)C(=O)O` (centres undefined) (H-LLPL-OH; configuration not given here) the logP was -1.
With `Cc1ccc(CO)c(C=NNC(=O)c2cccc(Br)c2)c1O` the logP was 3.91.
Work on `COc1ccc(-c2cc(=O)ss2)cc1` yielded a logP of 3.19.
With `Nc1ccc(S(=O)(=O)Nc2cc(Br)cc3[nH]ccc23)cc1` the logP was 2.77.
With `CC(C)CC(NC(=O)C(CC(C)C)NC(=O)C1CCCN1)C(=O)O` (stereo not drawn) (H-Pro-Leu-Leu-OH; configuration not given here) the logP was -1.64.
Compound `C=C(C)C(=O)OCCCCCCCCCCCC` has a logP of 6.57.
With `CCc1cccc(COC(=O)C2C(C=C(C)C)C2(C)C)c1` (centres undefined) the logP was 6.51.
`CNc1ccc2cc3ccc4c(c3nc2c1CO)COCN4` showed a logP of 1.65.
`Cn1c2c(c3cc(Cl)ccc31)CCNC2` showed a logP of 2.3.
For `O=C(Cn1cnc([N+](=O)[O-])n1)NCCCO`, the logP was -1.27.
In the case of `NS(=O)(=O)c1ncncc1-c1ccccc1`, the logP is reported as 0.5.
Work on `ClCC1(CCl)C2C(Cl)C(Cl)C1(CCl)C(Cl)(Cl)C2Cl` (centres undefined) yielded a logP of 5.74.
With `COc1cc(SC)ccc1-c1cn2cccnc2n1` the logP was 2.44.
`CC(=O)O[C@H]1[C@@H](O)C[C@H](O[C@H]2[C@@H](O)C[C@H](O[C@H]3[C@@H](O)C[C@H](O[C@H]4CC[C@@]5(C)[C@H](CC[C@@H]6[C@@H]5C[C@@H](O)[C@]5(C)[C@@H](C7=CC(=O)OC7)CC[C@]65O)C4)O[C@@H]3C)O[C@@H]2C)O[C@@H]1C` gave a logP of 2.
In the case of `Nc1nc(N)c2c(I)cccc2n1`, the logP is reported as 2.12.
In the case of `O=C1C=C(N2CCCCC2)C(=O)N1c1ccc(Cl)cc1`, the logP is reported as 3.4.
Compound `COCOc1ccc(Cc2cccc(-c3c(O)c4ccc(Cl)cc4[nH]c3=O)c2)cc1` has a logP of 5.24.
For `Cc1ccccc1C1CCc2c(C(=O)N(C)C)cn3c(C)c(C)nc3c2O1` (centres undefined), the logP was 3.5.
Work on `O=C1C=C(N2CCOCC2)C(=O)N1c1ccc(Cl)cc1` yielded a logP of 2.3.
In the case of `CCCNC1CCc2c(O)cccc2C1C` (centres undefined), the logP is reported as 2.88.
Compound `CC(C)CCCNc1ncnc2c1ncn2C1OC(CO)C(O)C1O` (centres undefined) has a logP of 2.07.
Compound `Clc1ccc(C=NOCCc2nnc(-c3ccccc3)o2)cc1` has a logP of 3.01.
Compound `ClCC1(CCl)C2CC(Cl)(Cl)C1(CCl)C(Cl)C2Cl` (centres undefined) has a logP of 5.23.
Work on `Brc1cc(Br)c(N=C2NCCN2)c(Br)c1` yielded a logP of 2.54.
In the case of `CN(C)C(C)(C)CO`, the logP is reported as 0.29.
`CCN(CC)CCNC(=O)c1c(C)cccc1C` gave a logP of 2.22.
For `S=C=NCCCCCCCCCCc1ccccc1`, the logP was 6.82.
For `O=C1c2ccc(C(F)(F)F)cc2OCN1CCO[N+](=O)[O-]`, the logP was 3.01.
Compound `COc1ccc(C2Cc3cc(Cl)ccc3N(CCN(C)C)C(=O)C2OC(C)=O)cc1` (centres undefined) has a logP of 4.2.
